Test results: US20260285853A1, “COMPOUNDS AND METHODS FOR MODULATING SPLICING” (REMIX THERAPEUTICS INC., priority 2023, published 2026)
Where a name gives a salt, the structure may show the parent alone.

Tests used:
Type in all cases: cell-based
[1] = test system: HTT mRNA; assay: Splicing RT-qPCR assay (THP), Table 2A; conditions: Table 2A, THP; for AC50: HTT alternative junction (AJ) mRNA, read-out: HTT AJ (AC50, increase in alternative junction mRNA); for IC50: HTT canonical junction (CJ) mRNA, read-out: HTT CJ (IC50, decrease in canonical junction mRNA)
[2] = test system: MYB mRNA; assay: Splicing RT-qPCR assay (THP), Table 2A; conditions: Table 2A, THP; for AC50: MYB alternative junction (AJ) mRNA, read-out: MYB AJ (AC50, increase in alternative junction mRNA); for IC50: MYB canonical junction (CJ) mRNA, read-out: MYB CJ (IC50, decrease in canonical junction mRNA)
[3] = test system: HTT mRNA; assay: Gene panel canonical junction qPCR assay, decrease in CJ mRNA, Table 3; conditions: decrease in CJ mRNA levels, canonical junction qPCR, gene panel
Method in brief: (§1)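 Eleven-point dose responses from 10 uM final, 24 h, DMSO ≤0.25%, in A673 or K562 cells. Relative quantification by 2^(−ΔΔCt) against housekeeper and vehicle was converted to percent response over fixed ΔCt windows and fitted to yield IC50.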

[4] = test system: MYB mRNA; assay: as above; conditions: decrease in CJ mRNA levels, canonical junction qPCR, gene panel
Method in brief: as §1

[5] = test system: SH-SY5Y (human neuroblastoma) cells; assay: Cell viability, Cell Titer Glo 2.0 assay; conditions: read-out: Viability SHSY5Y.3 GI50
Method in brief: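 Following a 72 h incubation (37 °C, 5% CO2, 0.1% DMSO final), compound toxicity toward SH-SY5Y cells was quantified by CellTiter-Glo 2.0.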

Row | Compound | AC50 [1] [µM] | IC50 [1] [µM] | AC50 [2] [µM] | IC50 [2] [µM] | IC50 [3] [µM] | IC50 [4] [µM] | GI50 [5] [µM]
1 | COc1nc2c(C(=O)Nc3cc(F)c4nn(C)cc4c3)ccc(N3CC4CCC(C3)N4)c2s1 [Compound 801, 7-(3,8-diazabicyclo[3.2.1]octan-3-yl)-N-(7-fluoro-2-methyl-indazol-5-yl)-2-methoxy-1,3-benzothiazole-4-carboxamide] | 1 to 10 | 1 to 10 | < 0.1 | < 0.1 | 1 to 10 | < 0.1 | 0.1 to 1
2 | Cc1cn2cc(NC(=O)c3ccc(N4CCC(NC5CC5)CC4)c4cn(C)nc34)nc2c(Cn2ccnn2)n1 [Compound 803] | > 10 | > 10 | > 10 | > 10 | > 10 | > 10 | 1 to 10
3 | Cc1cn2cc(NC(=O)c3ccc(N4CCC(NC5CC5)CC4)c4cn(C)nc34)nc2c(CNC2(C)COC2)n1 [Compound 804, 4-[4-(cyclopropylamino)-1-piperidyl]-2-methyl-N-[6-methyl-8-[[(3-methyloxetan-3-yl)amino]methyl]imidazo[1,2-a]pyrazin-2-yl]indazole-7-carboxamide] | > 10 | > 10 | > 10 | > 10 | > 10 | > 10 | 1 to 10
4 | Cc1cn2cc(NC(=O)c3ccc(N4CCC(NC5CC5)CC4)c4cn(C)nc34)nc2c(CCS(=O)(=O)N(C)C)n1 [Compound 805] | > 10 | > 10 | > 10 | 1 to 10 | > 10 | 1 to 10 | 1 to 10
5 | COc1cc2c(N3CCC(NC4CC4)CC3)ccc(C(=O)Nc3cn4cc(C)nc(CNS(C)(=O)=O)c4n3)n2n1 [Compound 806] | > 10 | > 10 | 1 to 10 | 1 to 10 | > 10 | 1 to 10 | 1 to 10
6 | COC(=O)NCc1nc(C)cn2cc(NC(=O)c3ccc(N4CCC(NC5CC5)CC4)c4cn(C)nc34)nc12 [Compound 807] | > 10 | > 10 | > 10 | > 10 | > 10 | > 10 | 1 to 10
7 | COc1nc2c(C(=O)Nc3ccc4nn(C)cc4c3C(C)=O)ccc(N3C[C@H](C)N[C@@H](C)C3)c2s1 [Compound 808] | 1 to 10 | > 10 | > 10 | > 10 | > 10 | > 10 | 1 to 10
8 | COc1nc2c(C(=O)Nc3cc4cn(C)nc4nc3OC)ccc(N3C[C@H](C)N[C@@H](C)C3)c2s1 [Compound 809] | > 10 | > 10 | < 0.1 | 0.1 to 1 | > 10 | 0.1 to 1 | 0.1 to 1
9 | COc1nc2c(C(=O)Nc3cc(F)c4nc(CO)cn4c3)ccc(N3C[C@H](C)N[C@@H](C)C3)c2s1 [Compound 810] | 0.1 to 1 | 1 to 10 | < 0.1 | < 0.1 | 1 to 10 | < 0.1 | < 0.1
10 | Cc1cn2cc(NC(=O)c3ccc(N4CCNCC4)c4cn(C)nc34)nc2c(CNS(C)(=O)=O)n1 [Compound 811] | > 10 | > 10 | 1 to 10 | > 10 | > 10 | > 10 | > 10
11 | CCNCc1nc(C)cn2cc(NC(=O)c3ccc(N4CCC(NC5CC5)CC4)c4cn(C)nc34)nc12 [Compound 812] | > 10 | > 10 | > 10 | > 10 | > 10 | > 10 | 1 to 10
12 | Cn1cc2cc(NC(=O)c3ccc(N4CCC(NC5CC5)CC4)c4cn(C)nc34)cc(CN)c2n1 [Compound 813, N-[7-(aminomethyl)-2-methyl-indazol-5-yl]-4-[4-(cyclopropylamino)-1-piperidyl]-2-methyl-indazole-7-carboxamide] | > 10 | > 10 | 1 to 10 | 1 to 10 | > 10 | 1 to 10 | > 10
13 | COC(=O)NCc1cc(NC(=O)c2ccc(N3CCC(NC4CC4)CC3)c3cn(C)nc23)cc2cn(C)nc12 [Compound 814] | > 10 | > 10 | 1 to 10 | 0.1 to 1 | > 10 | 0.1 to 1 | 1 to 10
14 | Cn1cc2cc(NC(=O)c3ccc(N4CCC(N(C(=O)OC(C)(C)C)C5CC5)CC4)c4cn(C)nc34)cc(CN)c2n1 [Compound 815] | > 10 | > 10 | > 10 | > 10 | > 10 | > 10 | 1 to 10
15 | Cc1cn2cc(NC(=O)c3ccc(N4CCC(NC5CC5)CC4)c4cn(C)nc34)cc(CNS(C)(=O)=O)c2n1 [Compound 816, 4-[4-(cyclopropylamino)-1-piperidyl]-N-[8-(methanesulfonamidomethyl)-2-methyl-imidazo[1,2-a]pyridin-6-yl]-2-methyl-indazole-7-carboxamide] | > 10 | > 10 | 1 to 10 | 1 to 10 | > 10 | 1 to 10 | > 10
16 | CCNC1CCN(c2ccc(C(=O)Nc3cc(CNS(C)(=O)=O)c4nc(C)cn4c3)c3nn(C)cc23)CC1 [Compound 817, 4-[4-(ethylamino)-1-piperidyl]-N-[8-(methanesulfonamidomethyl)-2-methyl-imidazo[1,2-a]pyridin-6-yl]-2-methyl-indazole-7-carboxamide] | > 10 | > 10 | 1 to 10 | 1 to 10 | > 10 | 1 to 10 | > 10
17 | Cn1cc2cc(NC(=O)c3ccc(N4CCC(NC5CC5)CC4)c4cn(C)nc34)cc(CN3CCCS3(=O)=O)c2n1 [Compound 818, 4-(4-(cyclopropylamino)piperidin-1-yl)-N-(7-((1,1-dioxidoisothiazolidin-2-yl)methyl)-2-methyl-2H-indazol-5-yl)-2-methyl-2H-indazole-7-carboxamide hydrochloride] | > 10 | > 10 | > 10 | > 10 | > 10 | > 10 | > 10
18 | COc1c(NC(=O)c2ccc(N3CCC(NC4CC4)CC3)c3cn(C)nc23)cc2cn(C)nc2c1CNS(C)(=O)=O [Compound 819] | 1 to 10 | 1 to 10 | 1 to 10 | 1 to 10 | 1 to 10 | 1 to 10 | 1 to 10
19 | CCNC1CCN(c2ccc(C(=O)Nc3cc(CN4CCCC4=O)c4nn(C)cc4c3)c3nn(C)cc23)CC1 [Compound 820, 4-[4-(ethylamino)-1-piperidyl]-2-methyl-N-[2-methyl-7-[(2-oxopyrrolidin-1-yl)methyl]indazol-5-yl]indazole-7-carboxamide] | > 10 | > 10 | > 10 | 1 to 10 | > 10 | 1 to 10 | > 10
